Laboratory results published in BigSolDB 2.1.

CC(=O)c1c(C)c2cnc(Nc3ccc(N4CCNCC4)cn3)nc2n(C2CCCC2)c1=O
solubility (mole fraction)
Conditions	293.15 K	298.15 K	303.15 K	308.15 K	313.15 K	318.15 K	323.15 K	328.15 K	333.15 K
in DMF	6.17e-05	8.25e-05	0.000103	0.000131	0.000166	0.000202	0.000246	0.000293	0.000351
in DMSO	6.57e-05	7.82e-05	9.62e-05	0.00012	0.000146	0.000172	0.000198	0.000246	0.000302
in THF	7.14e-05	9.81e-05	0.000143	0.000189	0.00025	0.000329	0.000417	0.000536	0.000696
in acetone	5.73e-05	7.32e-05	9.12e-05	0.000111	0.000138	0.000165	0.000199	0.000238	0.000278
in anisole	1.32e-05	1.41e-05	1.51e-05	1.67e-05	1.79e-05	1.87e-05	1.98e-05	2.02e-05	2.17e-05
in chlorobenzene	3.96e-05	5.28e-05	6.9e-05	8.91e-05	0.000116	0.000148	0.000189	0.000239	0.000302
in ethanol	2.11e-05	2.66e-05	3.03e-05	3.61e-05	4.12e-05	4.81e-05	5.6e-05	6.41e-05	7.27e-05
in ethyl acetate	1.44e-05	1.6e-05	2.06e-05	2.4e-05	3.08e-05	3.63e-05	4.42e-05	5.13e-05	5.98e-05
in m-xylene	3.74e-05	4.12e-05	5.23e-05	6.44e-05	8.24e-05	9.8e-05	0.000119	0.000147	0.000171
in methanol	1.1e-05	1.43e-05	1.97e-05	2.54e-05	3.43e-05	4.52e-05	5.71e-05	7.15e-05	9.01e-05
in o-xylene	3.21e-05	3.62e-05	4.29e-05	4.88e-05	5.57e-05	6.38e-05	7.18e-05	8.16e-05	9.67e-05
in pyridine	9.37e-05	0.000111	0.000127	0.000142	0.000159	0.000177	0.000196	0.000215	0.000236
in toluene	4.72e-05	5.67e-05	6.78e-05	8.01e-05	9.44e-05	0.00011	0.000129	0.000152	0.000178
in water	9.4e-06	1.18e-05	1.35e-05	1.7e-05	2.11e-05	2.52e-05	3.01e-05	3.63e-05	4.34e-05
